# Assay results published in US8501166B2, “Pyrimidinyl indole compounds” (Hutchison Medipharma Limited, priority 2010, dated 2013).
# Structures can show the parent of a compound that is named as a salt. Where two headings read alike, the source gives them in different places.
# Columns and labels:
# [1] = tested on: LPS-induced plasma IL-1β production; assay: LPS-induced plasma cytokine production in mouse, IL-1β; format: in vivo, Balb/c mice; details: even at the dose of 100 mg/kg
# Experimental: Alternately, the compound is screened for its ability to inhibit the LPS-induced cytokine production in rat plasma according to the method reported in the literature (Ziegelbauer K, Gantner F, Lukacs N W, et al. Br J. Pharmacol. 2005,145(2):178-92). Briefly, Lewis rats (male, body weight 140 g-180 g) are used in the experiments. Animals (8/group) are given 1 to 100 mg/kg of the testing compound (suspension in 35% solutol & 60% PEG400 & 5% PG) or vehicle by oral gavage at 1 h prior to intraperitoneal administration of LPS 0.4 mg/kg. Ninety minutes after the intraperitoneal administration of LPS, blood is collected in heparin anticoagulated tubes to measure TNFα using R&D System ELISA Kit based on the general Kit protocols. The plasma sample is diluted 100 fold with the dilution buffer and 50 μL of diluted sample is used in each measurement. The plate is read on a SPECTRAMAX® M2e Plus Plate Reader and TNFα levels are analyzed based on the standard curve. The drug levels in plasma are measured with LC-MS-MS. […] Alternately, the compound is screened for its ability to inhibit the LPS-induced cytokine production in mouse plasma. Balb/c mice (female, body weight 18-20 g) are used in the experiments. […] The plate is read on a SPECTRMAX® M2e Plus Plate Reader and the data is analyzed using a standard curve.
# [2] = tested on: OVA-induced airway inflammation; assay: Ovalbumin (OVA)-induced pulmonary inflammation in mice; format: in vivo, Balb/c mice
# Experimental: A compound of the present invention is tested in an OVA-induced pulmonary inflammation model in mice essentially as described in a method reported in the literature (Muriel Pichavant, Sho Goya, Eckard Hamelmann, Erwin W. Gelfand, and Dale T. Umetsu. Animal Models of Airway Sensitization. Current Protocols in Immunology. (1999) 15.18.1-15.18.13). Briefly, female Balb/c mice weighing from 18 to 20 g are sensitized by introperitoneal injection of 100 μL of saline containing 20 μg of OVA and 2 mg of aluminum hydroxide on day 1 and 14. On days 28, 29 and 30, mice are challenged once each by aerosolizing 1% ovalbumin (OVA) in phosphate buffered saline (PBS) for 20 minutes with Buxco Mass Dosing System. […] On day 32, animals from each group are anesthetized with 1% of pentobarbital sodium. The thoracic and abdominal cavities are opened and plasma is collected from centrifuged specimens. The trachea is then dissected and transected. Through the insertion of an 18-gauge catheter into the trachea, the lungs are lavaged with a total of 1.5 mL of sterile PBS and then placed into a specimen container. Cell-free BAL supernatants are obtained by centrifugation of BAL fluids. All serum and BAL supernatants are stored at −80° C. until use. Differential cell counts are performed on cytospin preparations of BAL cells for cell counting and cytokine determination. After the collection of BAL supernatants, the lungs of recipient mice are removed en bloc and fixed by an intratracheal instillation of 10% buffered formalin (in PBS). Three to six paraffin sections are obtained from the perihilar regions of recipient lungs, stained with hematoxylin and eosin, and examined under light microscopy for pathological study.
# BxPC-3 cells = assay: Cell viability test, combination study, BxPC-3; format: cell-based, human; details: for inhibition at 2.5 µM / inhibition at 25 µM: Homo sapiens, BXPC-3, 72 h, read-out: Ave. Inhibition rate
# Experimental: To evaluate biological activity of a compound in vitro, the cell viability test is applied, in which, IKKβ receptor plays an important role in cell survival and proliferation. Once the IKKβ pathway is blocked by inhibitors, a cell can go through apoptosis or death. The cell viability test provides information on cell survival after treatment with IKK inhibitors.
# BxPC-3 cells (ATCC #CRL-1687; human pancreatic cancer cell line) are grown in Roswell Park Memorial Institute (RPMI) 1640 media (Gibco #A10491-01) supplemented with 10% fetal bovine serum (FBS) (Gibco #10099-141). Skov3-luc cells (ATCC, human ovarian carcinoma cell line) are grown in McCoy's 5a medium (Gibco#16600) supplemented with 10% FBS (Gibco#10099-141). For compound testing, BxPc-3 and Skov3-Luc cells are seeded at 2000 and 5000 cells/well respectively in 100 μL of corresponding media specified above for each cell line in 96-well plates 20 h prior to treatment. Cells are treated with a test compound at eight different concentrations in the presence of 0.5% DMSO for 72 h. Cell death in each well is determined by the addition of 20 μL of the One Solution Reagent (CELLTITER 96® AQueous One Solution Cell Proliferation Assay, Promega #G3580). After 2-4 h of incubation at 37° C., optical densities at 492 nm are measured with a microplate reader Inhibition of cell viability is determined by comparison to the control cells treated in the absence of a test compound.
# For the combination study of the compound with other antitumor agents, BxPc-3 and Skov3-Luc cells are seeded at 2000 and 5000 cells/well respectively in 100 μL corresponding media specified above for each cell line in 96-well plates 20 h prior to the treatment. The cells are treated with the test compound at a number of concentrations for 30 minutes and then exposed to 5 ng/mL TNFα or 0.15-0.6 uM of VCR (vincristine sulfate) for an additional 72 hours. Cell death in each well is determined by the addition of 20 μL of the One Solution Reagent (CELLTITER 96® AQueous One Solution Cell Proliferation Assay, Promega #G3580). After 2-4 h of incubation at 37° C., optical densities at 492 nm are measured with a microplate reader Inhibition of cell viability is determined by comparison to the control cells treated in the absence of a test compound. For example, the results of the combination study with Example 1 are specially detailed in Table 2.
SMILES,effect on IL-1β production [1],decrease of eosinophil cell numbers ([2]; 1 mg/kg (bid)) [%],decrease of eosinophil cell numbers ([2]; 3 mg/kg (bid)) [%],"decrease of eosinophil cell numbers ([2]; 10 mg/kg (bid), p<0.05) [%]","reduction of IL-13 production ([2]; 10 mg/kg, p<0.05) [%]","decrease of eosinophil cell numbers ([2]; 30 mg/kg (bid), p<0.05) [%]","reduction of IL-13 production ([2]; 30 mg/kg, p<0.01) [%]","lung histology, hematoxylin and eosin stains ([2]; Example 2 at 1 to 30 mg/kg)","Ave. Inhibition rate (BxPC-3 cells; Example 1 25 μM alone, 72 h, hydrochloride) [%]",inhibition at 2.5 µM (BxPC-3 cells; Example 1 2.5 μM alone) [%],inhibition at 25 µM (BxPC-3 cells; Example 1 25 μM alone) [%],inhibition at 2.5 µM (BxPC-3 cells; TNFα 5 ng/mL + Example 1 2.5 μM) [%],inhibition at 25 µM (BxPC-3 cells; Vincristine 0.15 μM + Example 1 25 μM) [%]
"Cl.O=C(NC1CC1)c1cccc2[nH]c(-c3nc(N[C@@H]4CCC[C@H]4O)ncc3Cl)cc12 [Example 2, 2-{5-Chloro-2-[(1R,2R)-2-hydroxycyclopentylamino]pyrimidin-4-yl}-N-cyclopropyl-1H-indole-4-carboxamide hydrochloride]",no effect was observed,58.6,49.3,94.1,73.0,90.2,85.1,improvement in pulmonary inflammation,–,–,–,–,–
"O=C(NC1CC1)c1cccc2[nH]c(-c3nc(N[C@@H]4CCC[C@@H]4O)ncc3Cl)cc12 [Example 1, 2-{5-Chloro-2-[(1R,2S)-2-hydroxycyclopentylamino]pyrimidin-4-yl}-N-cyclopropyl-1H-indole-4-carboxamide hydrochloride]",–,–,–,–,–,–,–,–,11.53,-16.5,11.5,87.8,80.2
